{"source": "PubChem BioAssay (NCI)", "test_in_all_cases": "growth of human tumour cells (NCI), 384-well format", "key": {"SN12C renal": {"tested_on": "SN12C renal"}, "SK-MEL-5 melanoma": {"tested_on": "SK-MEL-5 melanoma"}, "MCF7 breast": {"tested_on": "MCF7 breast"}, "UACC-257 melanoma": {"tested_on": "UACC-257 melanoma"}, "HL-60(TB) leukemia": {"tested_on": "HL-60(TB) leukemia"}, "NCI-H460 NSCLC": {"tested_on": "NCI-H460 NSCLC"}, "CAKI-1 renal": {"tested_on": "CAKI-1 renal"}, "IGROV1 ovarian": {"tested_on": "IGROV1 ovarian"}, "U251 glioblastoma": {"tested_on": "U251 glioblastoma"}, "OVCAR-3 ovarian": {"tested_on": "OVCAR-3 ovarian"}, "KM12 colon": {"tested_on": "KM12 colon"}, "OVCAR-5 ovarian": {"tested_on": "OVCAR-5 ovarian"}, "SK-MEL-28 melanoma": {"tested_on": "SK-MEL-28 melanoma"}, "OVCAR-8 ovarian": {"tested_on": "OVCAR-8 ovarian"}, "NCI-H23 lung": {"tested_on": "NCI-H23 lung"}, "HCC-2998 colon": {"tested_on": "HCC-2998 colon"}, "MOLT-4 leukemia": {"tested_on": "MOLT-4 leukemia"}, "NCI-H322M lung": {"tested_on": "NCI-H322M lung"}, "SF-539 CNS": {"tested_on": "SF-539 CNS"}, "NCI-H226 lung": {"tested_on": "NCI-H226 lung"}, "SR leukemia": {"tested_on": "SR leukemia"}, "NCI/ADR-RES ovarian": {"tested_on": "NCI/ADR-RES ovarian"}, "MDA-MB-231 breast": {"tested_on": "MDA-MB-231 breast"}, "MDA-MB-468 breast": {"tested_on": "MDA-MB-468 breast"}, "UACC-62 melanoma": {"tested_on": "UACC-62 melanoma"}, "ACHN renal": {"tested_on": "ACHN renal"}, "M14 melanoma": {"tested_on": "M14 melanoma"}, "LOX IMVI melanoma": {"tested_on": "LOX IMVI melanoma"}, "NCI-H522 lung": {"tested_on": "NCI-H522 lung"}}, "note": "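GI50 = concentration required for 50% inhibition of growth. TGI is the concentration that stops growth completely.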", "data": [{"compound": "C#Cc1c(F)ccc2cc(O)cc(-c3ncc4c(N5CC6CCC(C5)N6)nc(OC[C@@]56CCCN5C[C@H](F)C6)nc4c3F)c12", "values": [{"measurement": "TGI", "setting": "SN12C renal", "result": 23.7, "unit": "µM"}, {"measurement": "GI50", "setting": "SK-MEL-5 melanoma", "result": 1.67, "unit": "µM"}, {"measurement": "TGI", "setting": "SK-MEL-5 melanoma", "result": 3.66, "unit": "µM"}, {"measurement": "GI50", "setting": "MCF7 breast", "result": 2.36, "unit": "µM"}, {"measurement": "TGI", "setting": "MCF7 breast", "result": 5.28, "unit": "µM"}, {"measurement": "GI50", "setting": "UACC-257 melanoma", "result": 1.77, "unit": "µM"}, {"measurement": "TGI", "setting": "UACC-257 melanoma", "result": 3.17, "unit": "µM"}, {"measurement": "GI50", "setting": "HL-60(TB) leukemia", "result": 1.87, "unit": "µM"}, {"measurement": "TGI", "setting": "HL-60(TB) leukemia", "result": 3.28, "unit": "µM"}, {"measurement": "GI50", "setting": "NCI-H460 NSCLC", "result": 1.51, "unit": "µM"}, {"measurement": "TGI", "setting": "NCI-H460 NSCLC", "result": 5.97, "unit": "µM"}, {"measurement": "GI50", "setting": "CAKI-1 renal", "result": 10.9, "unit": "µM"}, {"measurement": "TGI", "setting": "CAKI-1 renal", "result": 22.9, "unit": "µM"}, {"measurement": "GI50", "setting": "IGROV1 ovarian", "result": 12.4, "unit": "µM"}, {"measurement": "TGI", "setting": "IGROV1 ovarian", "result": 24.9, "unit": "µM"}, {"measurement": "GI50", "setting": "U251 glioblastoma", "result": 1.83, "unit": "µM"}, {"measurement": "TGI", "setting": "U251 glioblastoma", "result": 3.36, "unit": "µM"}, {"measurement": "GI50", "setting": "OVCAR-3 ovarian", "result": 4.45, "unit": "µM"}, {"measurement": "TGI", "setting": "OVCAR-3 ovarian", "result": 16.6, "unit": "µM"}, {"measurement": "GI50", "setting": "KM12 colon", "result": 2.07, "unit": "µM"}, {"measurement": "TGI", "setting": "KM12 colon", "result": 5.31, "unit": "µM"}, {"measurement": "GI50", "setting": "OVCAR-5 ovarian", "result": 3.14, "unit": "µM"}, {"measurement": "TGI", "setting": "OVCAR-5 ovarian", "result": 10.5, "unit": "µM"}, {"measurement": "GI50", "setting": "SK-MEL-28 melanoma", "result": 1.87, "unit": "µM"}, {"measurement": "TGI", "setting": "SK-MEL-28 melanoma", "result": 3.29, "unit": "µM"}, {"measurement": "GI50", "setting": "OVCAR-8 ovarian", "result": 12.2, "unit": "µM"}, {"measurement": "TGI", "setting": "OVCAR-8 ovarian", "result": 24.7, "unit": "µM"}, {"measurement": "GI50", "setting": "NCI-H23 lung", "result": 0.568, "unit": "µM"}, {"measurement": "TGI", "setting": "NCI-H23 lung", "result": 3.51, "unit": "µM"}, {"measurement": "GI50", "setting": "HCC-2998 colon", "result": 0.303, "unit": "µM"}, {"measurement": "TGI", "setting": "HCC-2998 colon", "result": 1.67, "unit": "µM"}, {"measurement": "GI50", "setting": "MOLT-4 leukemia", "result": 1.9, "unit": "µM"}, {"measurement": "TGI", "setting": "MOLT-4 leukemia", "result": 3.32, "unit": "µM"}, {"measurement": "GI50", "setting": "NCI-H322M lung", "result": 6.12, "unit": "µM"}, {"measurement": "TGI", "setting": "NCI-H322M lung", "result": 19.3, "unit": "µM"}, {"measurement": "GI50", "setting": "SF-539 CNS", "result": 1.92, "unit": "µM"}, {"measurement": "TGI", "setting": "SF-539 CNS", "result": 3.52, "unit": "µM"}, {"measurement": "GI50", "setting": "NCI-H226 lung", "result": 10.7, "unit": "µM"}, {"measurement": "TGI", "setting": "NCI-H226 lung", "result": 22.6, "unit": "µM"}, {"measurement": "GI50", "setting": "SR leukemia", "result": 1.06, "unit": "µM"}, {"measurement": "TGI", "setting": "SR leukemia", "result": 2.25, "unit": "µM"}, {"measurement": "GI50", "setting": "NCI/ADR-RES ovarian", "result": 85.7, "unit": "µM"}, {"measurement": "TGI", "setting": "NCI/ADR-RES ovarian", "result": "> 100", "unit": "µM"}, {"measurement": "GI50", "setting": "MDA-MB-231 breast", "result": 1.94, "unit": "µM"}, {"measurement": "TGI", "setting": "MDA-MB-231 breast", "result": 4, "unit": "µM"}, {"measurement": "GI50", "setting": "MDA-MB-468 breast", "result": 2.08, "unit": "µM"}, {"measurement": "TGI", "setting": "MDA-MB-468 breast", "result": 3.55, "unit": "µM"}, {"measurement": "GI50", "setting": "UACC-62 melanoma", "result": 1.78, "unit": "µM"}, {"measurement": "TGI", "setting": "UACC-62 melanoma", "result": 3.18, "unit": "µM"}, {"measurement": "GI50", "setting": "ACHN renal", "result": 16.1, "unit": "µM"}, {"measurement": "TGI", "setting": "ACHN renal", "result": 29.7, "unit": "µM"}, {"measurement": "GI50", "setting": "M14 melanoma", "result": 1.78, "unit": "µM"}, {"measurement": "TGI", "setting": "M14 melanoma", "result": 3.27, "unit": "µM"}, {"measurement": "GI50", "setting": "LOX IMVI melanoma", "result": 2.23, "unit": "µM"}, {"measurement": "TGI", "setting": "LOX IMVI melanoma", "result": 3.7, "unit": "µM"}, {"measurement": "GI50", "setting": "NCI-H522 lung", "result": 1.83, "unit": "µM"}, {"measurement": "TGI", "setting": "NCI-H522 lung", "result": 3.63, "unit": "µM"}]}]}
